In PMC8305236, “New Broth Macrodilution Volatilization Method for Antibacterial Susceptibility Testing of Volatile Agents and Evaluation of Their Toxicity Using Modified MTT Assay In Vitro” (Molecules, 2021):
In brackets after ≈: the same amount, converted by molar mass. Values belong to the compound of their own block, whether it stands above or below them.

Columns and labels:
Test in all cases: broth macrodilution volatilization method (liquid and vapor phase MIC)
Format in all cases: cell-based
[1] = tested on: Streptococcus pneumoniae ATCC 49619; settings: Streptococcus pneumoniae, ATCC49619; liquid phase, 37 °C, 24 h; read-out: Minimal Inhibitory Concentration, Broth
Source text: (§1) The following four bacterial standard strains from the American Type Culture Collection (ATCC, Manassas, VA, USA) were used: Haemophilus influenzae ATCC 49247, Staphylococcus aureus ATCC 29213, Streptococcus pneumoniae ATCC 49619, and Streptococcus pyogenes ATCC 19615. Cultivation and assay media (broth/agar) were Mueller–Hinton (MH) complemented by Haemophilus Tested Medium (H. influenzae), MH (S. aureus), and Brain Heart Infusion (S. pneumoniae and S. pyogenes). The pH of the broths was equilibrated to a final value of 7.6 using Trizma base (Sigma-Aldrich, Praha, Czech Republic). […] cultivation media were purchased from Oxoid (Basingstoke, UK).
(§2) Stock cultures of bacterial strains were cultivated in broth medium at 37 °C for 24 h prior to testing. For the preparation of inoculum, the turbidity of the bacterial suspension was adjusted to 0.5 McFarland standard using a Densi-La-Meter II (Lachema, Brno, Czech Republic) to obtain a final concentration of 10^8 CFU/mL.
(§3) The antibacterial potential of volatile plant-derived compounds in the liquid and vapor phases was determined using a newly developed broth macrodilution volatilization method performed in standard 2 mL microtubes with snap caps (Eppendorf, Hamburg, Germany). Initially, each sample of compound was dissolved in DMSO at maximum concentration of 1% and diluted in the appropriate broth medium. […] The concentration of β-thujaplicin started from 1024 µg/mL and from 128 µg/mL for thymohydroquinone and thymoquninone. In the second step, 90 µL of melted agar was pipetted into rims on the caps (Figure 3a) and inoculated with 5 µL of bacterial suspension after agar solidification. Subsequently, the appropriate concentrations of each sample previously prepared in test tubes were pipetted into microtubes in a final volume of 1500 µL. Then, the microtubes were inoculated with 10 µL of bacterial suspension and closed properly (Figure 3b). Microtubes containing inoculated and non-inoculated media were prepared as growth and purity controls simultaneously. After incubation at 37 °C for 24 h, the MICs were evaluated by the visual assessment of bacterial growth after coloring metabolically active bacterial colonies with MTT dye. The respective volumes of 30 and 375 µL of MTT at a concentration of 600 µg/mL were pipetted into the caps and in the microtubes when the interface of color change from yellow to purple (relative to that of colors in control wells) was recorded in broth and agar (Figure 3c). […] The MIC values were determined as the lowest concentrations that inhibited bacterial growth compared with the compound-free control and are expressed in µg/mL. In the case of the vapor phase, the concentration was also expressed in µg/cm^3 as the weight of the volatile agent per volume unit of a microtube. […] The respective susceptibilities of H. influenzae, S. aureus, S. pneumoniae, and S. pyogenes to ampicillin, oxacillin, amoxicillin, and tetracycline were checked as positive antibiotic controls. All tests were performed as three independent experiments, each carried out in triplicate, and the results were presented as median/modal values. According to the widely accepted norm in MIC testing, the mode and median were used for the final value calculation when triplicate endpoints were within the two- and three-dilution ranges, respectively.

[2] = tested on: Haemophilus influenzae ATCC 49247; settings: ATCC49247, liquid phase, 37 °C, 24 h, read-out: Minimal Inhibitory Concentration, Broth
Source text: as §1, §2, §3

[3] = tested on: Staphylococcus aureus ATCC 29213; settings: ATCC29213, liquid phase, 37 °C, 24 h, read-out: Minimal Inhibitory Concentration, Broth
Source text: as §1, §2, §3

[4] = tested on: Streptococcus pyogenes ATCC 19615; settings: Streptococcus pyogenes, ATCC19615; liquid phase, 37 °C, 24 h; read-out: Minimal Inhibitory Concentration, Broth
Source text: as §1, §2, §3

MIC [1]: 0.25 µg/mL (≈ 0.684 µM)
SMILES: CC1(C)S[C@@H]2[C@H](NC(=O)[C@H](N)c3ccc(O)cc3)C(=O)N2[C@H]1C(=O)O [amoxicillin, reference compound]

MIC [2]: 1 µg/mL (≈ 2.86 µM)
SMILES: CC1(C)S[C@@H]2[C@H](NC(=O)[C@H](N)c3ccccc3)C(=O)N2[C@H]1C(=O)O [ampicillin, reference compound]

SMILES: Cc1onc(-c2ccccc2)c1C(=O)N[C@@H]1C(=O)N2[C@@H]1SC(C)(C)[C@@H]2C(=O)O [oxacillin, reference compound]
MIC [3]: 0.5 µg/mL (≈ 1.25 µM)

SMILES: CN(C)[C@@H]1C(O)=C(C(N)=O)C(=O)[C@@]2(O)C(O)=C3C(=O)c4c(O)cccc4[C@@](C)(O)[C@H]3C[C@@H]12 [tetracycline, reference compound]
MIC [4]: 0.25 µg/mL (≈ 0.563 µM)
